In ChEMBL document CHEMBL1909046, “DrugMatrix in vitro pharmacology data”:
pIC50, pKi: −log10 of the molar value. *1 amine or outer side, *2 acyl side, *3 side chain or, on linkers, in order; H or OH if unused. Where a SMILES comes first, the peptide text is derived from it. Bridges are numbered along the chain shown (N, C = ends). Roman numbers before positions name the chains, in order. [ ]: non-standard residue; d: D form. Actinocin(1to9) = Cc1c2oc3c(C)ccc(C(=O)[*:2])c3nc-2c(C(=O)[*:1])c(N)c1=O; NMeV = CN[C@H](C(=O)O)C(C)C; Sar = CNCC(=O)O

Tests used:
Substance-K receptor = biological target: T1, Substance-K receptor (Homo sapiens, UniProt P21452); type: cell membranes, CHO, Membrane; conditions: for IC50: cho; on all read-outs here: in other assays of this panel Not Active means under 50% inhibition at 10 µM
T1 sequence (P21452 whole entry): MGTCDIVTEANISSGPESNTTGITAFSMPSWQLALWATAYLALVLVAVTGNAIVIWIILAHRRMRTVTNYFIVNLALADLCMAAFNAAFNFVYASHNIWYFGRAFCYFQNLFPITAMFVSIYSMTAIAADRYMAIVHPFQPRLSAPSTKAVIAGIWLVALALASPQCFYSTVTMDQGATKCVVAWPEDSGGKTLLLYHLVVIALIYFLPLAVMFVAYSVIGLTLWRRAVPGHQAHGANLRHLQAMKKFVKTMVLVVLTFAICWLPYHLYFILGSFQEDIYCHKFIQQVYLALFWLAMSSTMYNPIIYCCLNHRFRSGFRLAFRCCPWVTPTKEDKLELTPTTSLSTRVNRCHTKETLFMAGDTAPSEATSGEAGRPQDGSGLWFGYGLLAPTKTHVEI

[1] = DRUGMATRIX: Serotonin (5-Hydroxytryptamine) 5-HT3 radioligand binding (ligand: [3H] GR-65630); type: cell membranes, Membrane; conditions: hek293; Not Active = under 50% inhibition at 10 µM
[2] = DRUGMATRIX: Calcium Channel Type L, Benzothiazepine radioligand binding (ligand: [3H] Diltiazem); type: cell membranes, Rattus norvegicus, Wistar, Brain, Membrane; conditions: Not Active = under 50% inhibition at 10 µM
[3] = biological target: Voltage-gated inwardly rectifying potassium channel KCNH2 (Homo sapiens, UniProt Q12809); conditions: hek293; further: in other assays of this panel Not Active means under 50% inhibition at 10 µM
Chain of Voltage-gated inwardly rectifying potassium channel KCNH2 (Q12809 whole entry): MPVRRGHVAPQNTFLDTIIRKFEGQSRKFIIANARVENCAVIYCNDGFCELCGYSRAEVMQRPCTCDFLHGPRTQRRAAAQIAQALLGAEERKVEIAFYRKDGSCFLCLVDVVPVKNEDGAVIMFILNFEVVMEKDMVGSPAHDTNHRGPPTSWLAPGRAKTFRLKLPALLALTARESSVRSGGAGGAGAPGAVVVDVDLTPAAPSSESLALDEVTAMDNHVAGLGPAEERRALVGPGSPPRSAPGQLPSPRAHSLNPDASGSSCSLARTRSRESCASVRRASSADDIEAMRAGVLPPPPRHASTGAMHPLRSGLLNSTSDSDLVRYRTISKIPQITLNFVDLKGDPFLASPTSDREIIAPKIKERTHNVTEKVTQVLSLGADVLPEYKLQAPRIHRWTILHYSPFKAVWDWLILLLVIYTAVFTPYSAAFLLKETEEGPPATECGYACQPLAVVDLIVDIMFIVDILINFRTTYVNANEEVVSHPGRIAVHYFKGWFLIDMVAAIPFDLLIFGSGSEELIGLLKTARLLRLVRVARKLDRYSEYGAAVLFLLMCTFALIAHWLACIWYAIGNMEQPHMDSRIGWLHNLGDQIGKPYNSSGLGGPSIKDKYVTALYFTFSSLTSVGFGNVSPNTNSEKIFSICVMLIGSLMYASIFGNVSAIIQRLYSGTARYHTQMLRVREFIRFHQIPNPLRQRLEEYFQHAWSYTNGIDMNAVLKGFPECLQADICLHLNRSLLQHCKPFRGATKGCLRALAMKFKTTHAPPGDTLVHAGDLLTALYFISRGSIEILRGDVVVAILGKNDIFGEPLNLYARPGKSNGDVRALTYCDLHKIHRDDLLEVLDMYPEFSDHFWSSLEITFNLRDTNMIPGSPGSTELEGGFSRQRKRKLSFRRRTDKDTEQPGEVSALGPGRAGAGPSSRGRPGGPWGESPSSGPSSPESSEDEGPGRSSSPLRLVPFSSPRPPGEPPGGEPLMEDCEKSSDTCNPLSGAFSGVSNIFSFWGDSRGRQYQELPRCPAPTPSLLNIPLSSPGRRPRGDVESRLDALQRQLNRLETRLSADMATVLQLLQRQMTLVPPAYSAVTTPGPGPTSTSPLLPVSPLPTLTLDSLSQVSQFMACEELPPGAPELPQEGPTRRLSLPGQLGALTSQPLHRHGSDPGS

Leukotriene C4 synthase = biological target: T2, Leukotriene C4 synthase (Cavia porcellus, UniProt A6XA80); type: tissue-based, Lung;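 further: enzyme inhibition assay of leukotriene C4 synthase, using LTA4 as the substrate; in other assays of this panel Not Active means under 50% inhibition at 10 µM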
T2 sequence (A6XA80 whole entry): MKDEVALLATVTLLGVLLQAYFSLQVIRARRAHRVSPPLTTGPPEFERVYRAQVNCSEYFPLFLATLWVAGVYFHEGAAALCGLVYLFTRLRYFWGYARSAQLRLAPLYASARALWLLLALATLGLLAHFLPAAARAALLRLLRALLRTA

Neutrophil elastase = biological target: T3, Neutrophil elastase (Homo sapiens, UniProt P08246); type: tissue-based;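 further: inhibition of neutrophil elastase enzyme activity, measured with a p-nitroanilide-linked peptide substrate; in other assays of this panel Not Active means under 50% inhibition at 10 µM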
T3 sequence (P08246 whole entry): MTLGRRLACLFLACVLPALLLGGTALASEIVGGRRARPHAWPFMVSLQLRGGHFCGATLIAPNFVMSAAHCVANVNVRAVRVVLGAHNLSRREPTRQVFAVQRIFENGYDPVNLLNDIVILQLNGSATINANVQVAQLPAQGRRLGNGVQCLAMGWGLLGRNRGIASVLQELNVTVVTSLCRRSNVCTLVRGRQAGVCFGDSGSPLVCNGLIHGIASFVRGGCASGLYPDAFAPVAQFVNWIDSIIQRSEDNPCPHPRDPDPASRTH

SMILES	IC50 (Substance-K receptor)	IC50 [1]	Ki [1]	IC50 [2]	Ki [2]	IC50 [3]	Ki [3]	IC50 (Leukotriene C4 synthase)	IC50 (Neutrophil elastase)	pIC50 (Substance-K receptor; read-out: IC50)	pKi (Substance-K receptor; read-out: Ki)
CC1CC(OC(=O)C(O)c2ccccc2)CC(C)(C)C1 (configuration not stated) [CYCLANDELATE]	Not Active	Not Active	Not Active	Not Active	Not Active	Not Active	Not Active	Not Active	Not Active	–	–
Cc1c2oc3c(C)ccc(C(=O)N[C@@H]4C(=O)N[C@H](C(C)C)C(=O)N5CCC[C@H]5C(=O)N(C)CC(=O)N(C)[C@@H](C(C)C)C(=O)O[C@@H]4C)c3nc-2c(C(=O)N[C@@H]2C(=O)N[C@H](C(C)C)C(=O)N3CCC[C@H]3C(=O)N(C)CC(=O)N(C)[C@@H](C(C)C)C(=O)O[C@@H]2C)c(N)c1=O [DACTINOMYCIN] (I: T[dV]P[Sar][NMeV] / II: T[dV]P[Sar][NMeV]; ester I:1-I:C, II:1-II:C; linker I:N-II:N via Actinocin(1to9))	Not Active	Not Active	Not Active	Not Active	Not Active	Not Active	Not Active	Not Active	Not Active	–	–
Cc1c(O)c(=O)ccn1C [DEFERIPRONE]	Not Active	Not Active	Not Active	Not Active	Not Active	Not Active	Not Active	Not Active	Not Active	–	–
O=c1oc2ccccc2c(O)c1Cc1c(O)c2ccccc2oc1=O [DICUMAROL]	Not Active	Not Active	Not Active	Not Active	Not Active	Not Active	Not Active	Not Active	Not Active	–	–
C[C@H]1O[C@@H](O[C@H]2[C@@H](O)C[C@H](O[C@H]3[C@@H](O)C[C@H](O[C@H]4CC[C@@]5(C)[C@H](CC[C@@H]6[C@@H]5C[C@@H](O)[C@]5(C)[C@@H](C7=CC(=O)OC7)CC[C@]65O)C4)O[C@@H]3C)O[C@@H]2C)C[C@H](O)[C@@H]1O [DIGOXIN]	Not Active	Not Active	Not Active	Not Active	Not Active	Not Active	Not Active	Not Active	Not Active	–	–
CC(C)[C@@]1(NC(=O)[C@@H]2C[C@@H]3c4cccc5[nH]cc(c45)C[C@H]3N(C)C2)O[C@@]2(O)[C@@H]3CCCN3C(=O)[C@H](Cc3ccccc3)N2C1=O.CS(=O)(=O)O [DIHYDROERGOCRISTINE MESYLATE]	Not Active	Not Active	Not Active	Not Active	Not Active	Not Active	Not Active	Not Active	Not Active	–	–
CC(=O)O[C@@]12CO[C@@H]1C[C@H](O)[C@@]1(C)C(=O)[C@H](O)C3=C(C)[C@@H](OC(=O)[C@H](O)[C@@H](NC(=O)OC(C)(C)C)c4ccccc4)C[C@@](O)([C@@H](OC(=O)c4ccccc4)[C@H]21)C3(C)C.O.O.O [DOCETAXEL]	–	Not Active	Not Active	Not Active	Not Active	Not Active	Not Active	Not Active	Not Active	5.81	6.28
C[C@H]1c2cccc(O)c2C(=O)C2=C(O)[C@]3(O)C(=O)C(C(N)=O)=C(O)[C@@H](N(C)C)[C@@H]3[C@@H](O)[C@@H]21.O [DOXYCYCLINE]	Not Active	Not Active	Not Active	Not Active	Not Active	Not Active	Not Active	Not Active	Not Active	–	–
CC(C)[C@H]1C(=O)N2CCC[C@H]2[C@]2(O)O[C@](NC(=O)[C@@H]3C=C4c5cccc6[nH]cc(c56)C[C@H]4N(C)C3)(C(C)C)C(=O)N12 [ERGOCORNINE]	Not Active	Not Active	Not Active	Not Active	Not Active	Not Active	Not Active	Not Active	Not Active	–	–
